Laboratory results reported in patent publication US10111854B2, “Synthesis and use of amine-containing flavonoids as potent anti-leishmanial agents” (The Hong Kong Polytechnic University, priority 2014, dated 2018).

How the values were obtained:
RAW264.7 cells [1] = experiment: Cytotoxicity, RAW264.7 macrophages; format: cell-based; settings: murine macrophages RAW264.7
Experimental: Promastigotes of visceral L. donovani Ld39 and LdHU3, and cutaneous L. amazonensis LV78, L. braziliensis UA847 and L. major FV1 were employed in the study. All strains were cultured in Schneider's Drosophila Medium (Invitrogen), pH 6.9 supplemented with 10% (v/v) heat inactivated fetal bovine serum (Hyclone) with 4 mM glutamine (Sigma) and 25 μg/mL gentamicin solution (Invitrogen) at 27° C. for 4 days. RAW264.7 cells were cultured in supplemented DMEM media with 10% heat inactivated FBS and 100 U/mL penicillin and 100 μg/mL of streptomycin. They were maintained at 37° C. in a humidified atmosphere with 5% CO2. The cells were split constantly after a confluent monolayer has been formed. The cells were harvested by a cell scraper.
IC50 values of known antileishmanials and the amine-containing flavonoid monomers of the present invention to promastigotes (L. amazonensis LV78, L major FV1, L. donovani HU3, L. donovani 39), macrophages (Raw 264.7 and PEM) and mouse fibroblast (L929) were determined. The anti-promastigotes activities and cytotoxicity of the amine-containing flavonoid monomers of the invention are shown in Table 1.

[2] = system: L. major FV1 promastigotes; experiment: Anti-promastigote activity (MTS assay), L. major FV1; format: cell-based; settings: 72 hours
In short: (§1)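 Promastigotes (1×10^5 per well) in Schneider's medium pH 6.9 with 10% FBS, exposed to serial compound concentrations for 72 h at 27 °C. Viability by MTS/PMS reduction over 4 h, OD 490 nm; IC50 derived.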

[3] = system: L. amazonensis LV78 amastigotes; experiment: Anti-amastigote activity in infected PEM, L. amazonensis LV78; format: cell-based; settings: infected PEM, 3 days, Giemsa
In short: (§2)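 Readout was Giemsa counts of amastigotes per 100 macrophages and percentage infected, from which IC50 values were calculated. Treatment lasted 3 days at 37° C. It followed overnight or 24 hr infection of mouse elicited peritoneal macrophages with late-log promastigotes at a 20:1 parasite ratio.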

[4] = system: L. donovani HU3 promastigotes; experiment: Anti-promastigote activity (MTS assay), L. donovani HU3; format: cell-based; settings: 72 hours
In short: as §1

[5] = system: L. braziliensis UA847 amastigotes; experiment: Anti-amastigote activity in infected PEM, L. braziliensis UA847; format: cell-based; settings: 3 days, Giemsa, read-out: Anti-amastigote activity IC50, L. baziliensis UA847
Experimental: Mouse peritoneal elicited macrophages (PEM) were obtained as previously described (2). A round cover slip (12 mm in diameter) was placed into each well of 24-well culture plate. Mouse PEM were resuspended in supplemented DMEM media containing 10% heat inactivated FBS (v/v), 100 U/mL penicillin and 100 μg/mL streptomycin and seeded into each well at a cell density of 1×10^5 cells per 500 μL. Macrophages were allowed to attach overnight. Non-adherent cells were removed by gentle washing with un-supplemented DMEM media twice. Adherent macrophages were infected with late-log promastigotes at a parasite-to-macrophage ratio of 20:1 overnight at 37° C. with 5% CO2. Non-internalized promastigotes were removed by washing twice with un-supplemented DMEM media. Infected macrophages were further incubated in 500 μL of supplemented DMEM media in the presence or absence of FM for 72 hours at 37° C. After incubation, cover slips were stained with Giemsa and the percentage of macrophages infected and number of amastigotes per 100 macrophages was enumerated.
PEM cells were infected with late-log promastigotes (L. amazonensis LV78, L. braziliensis UA847, L. donovani HU3, L. donovani 39) for 24 hr at 37° C. Infected macrophages were then treated with various antileishmanials and incubated for 3 days at 37° C. After 3 days, the cover slips were stained with Giemsa. The number of amastigotes per 100 macrophages were determined and used to calculate IC50 values.

RAW264.7 cells [6] = experiment: Reactive oxygen species (ROS) level, DCFDA, RAW264.7; format: cell-based, murine
Experimental: (§3) 50,000 RAW264.7 were seeded in each well of black 96-well plates overnight. Next day, RAW264.7 cells were pre-loaded with 10 μM dichlorofluorescein diacetate (DCFDA) (Abcam) for 1 hr at 37° C. with 5% CO2. A control of non-DCFDA stained cells was also included. The DCFDA-contained supplemented DMEM media was removed. The cells were re-suspended with 10 μM or 30 μM of respective tested compounds and positive control, tert-butyl hydroperoxide. In Leishmania, 1×10^7 promastigotes were also pre-loaded with 10 μM DCFDA at 27° C. for 1 hr. After removing the DCFDA-contained media, the promastigotes were seeded into black 96-well plate and incubated with 30 μM of respective compounds or positive control. The ROS level was determined at different periods of time including 2, 4, 6, 8, 20, 46 and 72 hr using microplate reader (excitation: 485 nm and emission: […]).
(§4) The ROS levels in both macrophage RAW264.7 and L. amazonensis promastigotes was measured by dichlorofluorescein diacetate (DCFDA) dye which is permeable to the cells. With oxidative stress, DCFDA would be oxidized to fluorescent DCF which is an indicator of intracellular ROS level. RAW cells or L. amazonensis promastigotes were pre-loaded with 10 μM of DCFDA for 1 hr, washed and exposed to 39, FM09, pentamidine and amphotericin B for different period of time (2, 4, 6, 8, 20, 46 and 72 hr). The fluorescence level was measured at the 520 nm using 485 nm as an excitation wavelength. 0.1% DMSO or 0.3% DMSO was used as a solvent control. The fluorescent value has been subtracted from non-DCFDA stained cells. The values were presented as mean±standard error of mean.

[7] = system: L. amazonensis LV78 promastigotes; experiment: Anti-promastigote activity (MTS assay), L. amazonensis LV78; format: cell-based; settings: 72 hours
In short: as §1

[8] = system: L. amazonensis LV78 promastigotes; experiment: Reactive oxygen species (ROS) level, DCFDA, promastigotes; format: cell-based; settings: 30 μM
Experimental: as §3, §4

[9] = system: L. donovani Ld39 amastigotes (SSG-resistant); experiment: Anti-amastigote activity in infected PEM, L. donovani Ld39; format: cell-based; settings: infected PEM, 3 days, Giemsa; SSG-resistant
In short: as §2

[10] = system: L. donovani Ld39 promastigotes; experiment: Anti-promastigote activity (MTS assay), L. donovani Ld39; format: cell-based; settings: 72 hours
In short: as §1

[11] = system: peritoneal elicited macrophages (PEM); experiment: Cytotoxicity, peritoneal elicited macrophages (PEM); format: cell-based, mouse; settings: peritoneal elicited macrophages; read-out: Cytotoxicity IC50, PEM

Q: Which IC50 (RAW264.7 cells [1]) does the source give for C[C@@H]1[C@H](O)[C@@H](C)/C=C/C=C/C=C/C=C/C=C/C=C/C=C/[C@H](O[C@@H]2O[C@H](C)[C@@H](O)[C@H](N)[C@@H]2O)C[C@@H]2O[C@](O)(C[C@@H](O)C[C@@H](O)[C@H](O)CC[C@@H](O)C[C@@H](O)CC(=O)O[C@H]1C)C[C@H](O)[C@H]2C(=O)O [Amphotericin B] here?
A: Its IC50 is 12000 ± 2500 nM.

Q: What about the IC50 [2] of the same compound?
A: The IC50 was 290 ± 50 nM.

Q: What about the IC50 [3] of the same compound?
A: Its IC50 is 55 ± 29 nM.

Q: What about the IC50 [4] of the same compound?
A: Its IC50 is 200 nM.

Q: And the IC50 [5]?
A: The IC50 was 49 ± 10 nM.

Q: What about the “RAW264.7 ROS Level, Relative fold (RF)” value (RAW264.7 cells [6]; 10 μM, 2 hr) of the same compound?
A: The value was 1.4 fold.

Q: What about the “RAW264.7 ROS Level, Relative fold (RF)” value (RAW264.7 cells [6]; 10 μM, 4 hr) of the same compound?
A: The value was 1.4 fold.

Q: And the “RAW264.7 ROS Level, Relative fold (RF)” value (RAW264.7 cells [6]; 10 μM, 6 hr)?
A: The value was 1.4 fold.

Q: What about the “RAW264.7 ROS Level, Relative fold (RF)” value (RAW264.7 cells [6]; 10 μM, 8 hr) of the same compound?
A: Its value is 1.2 fold.

Q: And the “RAW264.7 ROS Level, Relative fold (RF)” value (RAW264.7 cells [6]; 10 μM, 20 hr)?
A: The value was 1.0 fold.

Q: And the “ROS induction in macrophages” value (RAW264.7 cells [6]; 10 μM, RAW264.7)?
A: The value was “No ROS induction”.

Q: What about the “RAW264.7 ROS Level, Relative fold (RF)” value (RAW264.7 cells [6]; 30 μM, 2 hr) of the same compound?
A: Its value is 1.6 fold.

Q: And the “RAW264.7 ROS Level, Relative fold (RF)” value (RAW264.7 cells [6]; 30 μM, 4 hr)?
A: The value was 1.6 fold.

Q: What about the “RAW264.7 ROS Level, Relative fold (RF)” value (RAW264.7 cells [6]; 30 μM, 6 hr) of the same compound?
A: Its value is 1.5 fold.

Q: And the “RAW264.7 ROS Level, Relative fold (RF)” value (RAW264.7 cells [6]; 30 μM, 20 hr)?
A: The value was 1.3 fold.

Q: And the “RAW264.7 ROS Level, Relative fold (RF)” value (RAW264.7 cells [6]; 30 μM, 46 hr)?
A: The value was 1.3 fold.

Q: And the IC50 [7]?
A: Its IC50 is 240 ± 30 nM.

Q: What about the “L. amazon LV78 promastigote ROS Level, Relative fold (RF)” value ([8]; 2 hr) of the same compound?
A: The value was 4.5 fold.

Q: What about the “L. amazon LV78 promastigote ROS Level, Relative fold (RF)” value ([8]; 4 hr) of the same compound?
A: Its value is 5.6 fold.

Q: And the “L. amazon LV78 promastigote ROS Level, Relative fold (RF)” value ([8]; 6 hr)?
A: The value was 7.5 fold.

Q: And the “L. amazon LV78 promastigote ROS Level, Relative fold (RF)” value ([8]; 20 hr)?
A: The value was 21 fold.

Q: And the “L. amazon LV78 promastigote ROS Level, Relative fold (RF)” value ([8]; 46 hr)?
A: The value was 27.1 fold.

Q: And the “L. amazon LV78 promastigote ROS Level, Relative fold (RF)” value ([8]; 72 hr)?
A: The value was 24.9 fold.

Q: And the IC50 [9]?
A: The IC50 was 62 nM.

Q: What about the IC50 [10] of the same compound?
A: Its IC50 is 95 ± 20 nM.

Q: And the IC50 [11]?
A: Its IC50 is 7400 ± 400 nM.
